Experimental data taken from patent publication US10722471B2, “Galenic formulations of organic compounds” (Novartis AG, priority 2016, dated 2020).

Assay: Relative bioavailability and food effect of 200 mg LCZ696 mini-tablets vs 200 mg FMI tablet; randomized, open-label, single dose, crossover study;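 also: crossover design with one dose per period, healthy volunteers, 40 enrolled and 39 completing the study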
Conditions: label = analyte; for extent of absorption (AUCs) with a high fat meal: LCZ696 200 mg mini-tablets sprinkled on pudding; for Cmax, geometric mean ratio, Mini tablets vs FMI tablet (Fasting) / AUCinf, geometric mean ratio, Mini tablets vs FMI tablet (Fasting) / AUClast, geometric mean ratio, Mini tablets vs FMI tablet (Fasting) / Cmax, geometric mean ratio, Pudding + High fat meal vs Pudding (Mini tablets) / AUCinf, geometric mean ratio, Pudding + High fat meal vs Pudding (Mini tablets) / AUClast, geometric mean ratio, Pudding + High fat meal vs Pudding (Mini tablets) / Cmax, geometric mean ratio, Pudding vs fasting (Mini tablets) / AUCinf, geometric mean ratio, Pudding vs fasting (Mini tablets) / AUClast, geometric mean ratio, Pudding vs fasting (Mini tablets): LCZ696 200 mg single oral dose, healthy subjects; for Cmax, geometric mean ratio, Mini tablets vs FMI tablet (Fasting) / AUCinf, geometric mean ratio, Mini tablets vs FMI tablet (Fasting) / AUClast, geometric mean ratio, Mini tablets vs FMI tablet (Fasting): test minitablets / reference FMI tablet; for Cmax, geometric mean ratio, Mini tablets vs FMI tablet (Fasting) / Cmax, geometric mean ratio, Pudding + High fat meal vs Pudding (Mini tablets) / Cmax, geometric mean ratio, Pudding vs fasting (Mini tablets): parameter head prints ng/ml; for AUCinf, geometric mean ratio, Mini tablets vs FMI tablet (Fasting) / AUClast, geometric mean ratio, Mini tablets vs FMI tablet (Fasting) / AUCinf, geometric mean ratio, Pudding + High fat meal vs Pudding (Mini tablets) / AUClast, geometric mean ratio, Pudding + High fat meal vs Pudding (Mini tablets) / AUCinf, geometric mean ratio, Pudding vs fasting (Mini tablets) / AUClast, geometric mean ratio, Pudding vs fasting (Mini tablets): parameter head prints ng·h/ml; for Cmax, geometric mean ratio, Pudding + High fat meal vs Pudding (Mini tablets) / AUCinf, geometric mean ratio, Pudding + High fat meal vs Pudding (Mini tablets) / AUClast, geometric mean ratio, Pudding + High fat meal vs Pudding (Mini tablets): test minitablets on pudding + high fat meal / reference minitablets with pudding; for Cmax, geometric mean ratio, Pudding vs fasting (Mini tablets) / AUCinf, geometric mean ratio, Pudding vs fasting (Mini tablets) / AUClast, geometric mean ratio, Pudding vs fasting (Mini tablets): test minitablets with pudding / reference minitablets; for decrease of Cmax with a high fat meal: single dose LCZ696 200 mg mini-tablets sprinkled on pudding

## C[C@H](C[C@@H](Cc1ccc(-c2ccccc2)cc1)NC(=O)CCC(=O)O)C(=O)O [LBQ657, (2R,4S)-5-biphenyl-4-yl-4-(3-carboxy-propionylamino)-2-methyl-pentanoic acid]
  extent of absorption (AUCs) with a high fat meal: comparable
  Cmax, geometric mean ratio, Mini tablets vs FMI tablet (Fasting): 0.95
  AUCinf, geometric mean ratio, Mini tablets vs FMI tablet (Fasting): 0.98
  AUClast, geometric mean ratio, Mini tablets vs FMI tablet (Fasting): 0.98
  Cmax, geometric mean ratio, Pudding + High fat meal vs Pudding (Mini tablets): 0.81
  AUCinf, geometric mean ratio, Pudding + High fat meal vs Pudding (Mini tablets): 1.02
  AUClast, geometric mean ratio, Pudding + High fat meal vs Pudding (Mini tablets): 1.02
  Cmax, geometric mean ratio, Pudding vs fasting (Mini tablets): 0.99
  AUCinf, geometric mean ratio, Pudding vs fasting (Mini tablets): 1.01
  AUClast, geometric mean ratio, Pudding vs fasting (Mini tablets): 1.01
  decrease of Cmax with a high fat meal: 19%

## CCOC(=O)[C@H](C)C[C@@H](Cc1ccc(-c2ccccc2)cc1)NC(=O)CCC(=O)O [Sacubitril, (2R,4S)-5-biphenyl-4-yl-4-(3-carboxy-propionylamino)-2-methyl-pentanoic acid ethyl ester]
  extent of absorption (AUCs) with a high fat meal: comparable
  Cmax, geometric mean ratio, Mini tablets vs FMI tablet (Fasting): 0.94
  AUCinf, geometric mean ratio, Mini tablets vs FMI tablet (Fasting): 0.96
  AUClast, geometric mean ratio, Mini tablets vs FMI tablet (Fasting): 0.96
  Cmax, geometric mean ratio, Pudding + High fat meal vs Pudding (Mini tablets): 0.4
  AUCinf, geometric mean ratio, Pudding + High fat meal vs Pudding (Mini tablets): 1.01
  AUClast, geometric mean ratio, Pudding + High fat meal vs Pudding (Mini tablets): 1.00
  Cmax, geometric mean ratio, Pudding vs fasting (Mini tablets): 1.00
  AUCinf, geometric mean ratio, Pudding vs fasting (Mini tablets): 1.04
  AUClast, geometric mean ratio, Pudding vs fasting (Mini tablets): 1.04
  decrease of Cmax with a high fat meal: 60%

## CCCCC(=O)N(Cc1ccc(-c2ccccc2-c2nnn[nH]2)cc1)[C@H](C(=O)O)C(C)C [Valsartan, S—N-valeryl-N-{[2′-(1H-tetrazole-5-yl)-biphenyl-4-yl]-methyl}-valine]
  Cmax, geometric mean ratio, Mini tablets vs FMI tablet (Fasting): 1.09
  AUCinf, geometric mean ratio, Mini tablets vs FMI tablet (Fasting): 1.11
  AUClast, geometric mean ratio, Mini tablets vs FMI tablet (Fasting): 1.11
  Cmax, geometric mean ratio, Pudding + High fat meal vs Pudding (Mini tablets): 0.43
  AUCinf, geometric mean ratio, Pudding + High fat meal vs Pudding (Mini tablets): 0.6
  AUClast, geometric mean ratio, Pudding + High fat meal vs Pudding (Mini tablets): 0.59
  Cmax, geometric mean ratio, Pudding vs fasting (Mini tablets): 1.02
  AUCinf, geometric mean ratio, Pudding vs fasting (Mini tablets): 1.02
  AUClast, geometric mean ratio, Pudding vs fasting (Mini tablets): 1.04
  decrease of Cmax with a high fat meal: 57%
